Assays:
Plasmodium falciparum [1] = test: Antimalarial activity against chloroquine-sensitive Plasmodium falciparum D10 after 72 hrs by parasite LDH assay; type: functional, organism-based; conditions: D10, 72 h
Plasmodium falciparum [2] = test: Antimalarial activity against chloroquine-resistant Plasmodium falciparum W2 after 72 hrs by parasite LDH assay; type: functional, organism-based; conditions: W2, 72 h

Structure (SMILES)	IC50 (Plasmodium falciparum [1])	IC50 (Plasmodium falciparum [2])
C/C=C(C)/C=C/CCC[C@]1(OC)C[C@H](C)[C@H](CC(=O)OC)OO1 [MANADOPEROXIDE A]	6.88 µM	3.74 µM
CC/C=C(C)/C=C/CCC[C@]1(OC)C[C@H](C)[C@H](CC(=O)OC)OO1 [MANADOPEROXIDE B]	6.76 µM	3.69 µM
COC(=O)C[C@@H]1OO[C@@](CCC/C=C/C(C)=O)(OC)C[C@@H]1C [MANADOPEROXIDE C]	4.54 µM	2.33 µM
COC(=O)C[C@@H]1OO[C@@](CCC[C@H](O)/C=C(\C)[C@H](C)O)(OC)C[C@@H]1C [MANADOPEROXIDE D]	10.4 µM	7.93 µM
CC/C=C/[C@H](CC)C[C@@]1(C)C[C@@H](CC)[C@@H](CC(=O)OC)OO1 [PLAKORTIN]		0.39 µM

From ChEMBL document CHEMBL1166001, “Manadoperoxides A-D from the Indonesian sponge Plakortis cfr. simplex. Further insights on the structure-activity relationships of simple 1,2-dioxane antimalarials” (J Nat Prod, 2010)
